{"source": "ChEMBL document CHEMBL6096731", "about": "“Structure-Guided Optimization and Preclinical Evaluation of 6-O-Benzylguanine-Based Pin1 Inhibitor for Hepatocellular Carcinoma Treatment” (J Med Chem, 2025)", "key": {"SK-HEP1 [1]": {"system": "SK-HEP1", "assay": "Inhibition of colony formation human SK-HEP1 cells at 2.5 uM incubated for 5 days by crystal violet staining based analysis", "format": "functional, cell-based", "details": "time 5.0 day"}, "[2]": {"biological_target": "Peptidyl-prolyl cis-trans isomerase NIMA-interacting 1 (Homo sapiens, UniProt Q13526)", "sequence (Q13526 whole entry)": "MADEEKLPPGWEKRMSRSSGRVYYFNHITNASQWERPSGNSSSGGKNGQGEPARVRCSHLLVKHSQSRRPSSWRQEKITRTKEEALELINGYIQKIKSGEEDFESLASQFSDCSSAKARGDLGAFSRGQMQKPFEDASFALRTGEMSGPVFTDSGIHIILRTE", "assay": "Inhibition of full length pin1 (unknown origin) expressed in Escherichia coli"}, "[3]": {"assay": "Antiproliferative activity against human HCC cells assessed as cell viability incubated for 72 hrs by alamar blue dye based assay", "format": "toxicity", "details": "hcc, 72 h"}, "SK-HEP1 [4]": {"system": "SK-HEP1", "assay": "Antiproliferative activity human SK-HEP1 cells assessed as cell viability measured up to 120 hrs", "format": "functional, cell-based"}, "SK-HEP1 [5]": {"system": "SK-HEP1", "assay": "Antiproliferative activity human SK-HEP1 cells assessed as cell viability measured at 96 hrs", "format": "functional, cell-based"}, "SK-HEP1 [6]": {"system": "SK-HEP1", "assay": "Antiproliferative activity human SK-HEP1 cells assessed as cell viability measured at 120 hrs", "format": "functional, cell-based"}, "SK-HEP1 [7]": {"system": "SK-HEP1", "assay": "Inhibition of cell migration in human SK-HEP1 cells at 5 uM incubated for 24 hrs by crystal violet staining based microscopic analysis", "format": "functional"}}, "note": "Active and inactive are the calls of the source. The calls are words filed in the database; no cut-off is given here."}
{"smiles": "O=C1C=CC(=O)c2c(O)cccc21", "values": [{"measurement": "inhibition", "setting": "SK-HEP1 [1]", "result": "Active"}]}
{"smiles": "Nc1nc(OCc2ccc(CNC(=O)C(F)(F)F)cc2)c2nc[nH]c2n1", "values": [{"measurement": "IC50", "setting": "[2]", "result": 148, "unit": "nM"}, {"measurement": "Activity", "setting": "[3]", "result": "Non-toxic"}, {"measurement": "Activity", "setting": "SK-HEP1 [4]", "result": "Active"}, {"measurement": "Activity", "setting": "SK-HEP1 [5]", "result": "Active"}, {"measurement": "Activity", "setting": "SK-HEP1 [6]", "result": "Active"}, {"measurement": "inhibition", "setting": "SK-HEP1 [1]", "result": "Active"}, {"measurement": "inhibition", "setting": "SK-HEP1 [7]", "result": "Active"}]}
